According to the NIST ThermoML archive (doi:10.1016/j.jct.2006.11.014):
Numbers after ± are expanded uncertainties. Blank lines part the entries; values can stand above or below the molecule they belong to.

Columns and labels:
[1] = an = ratio of the nth substance listed; conditions: 298.15 K, 101 kPa, Liquid
[2] = cn = amount concentration of the nth substance listed, in mol/dm3; conditions: 298.15 K, 101 kPa, Liquid

Compound: NCC(=O)O [2-aminoacetic acid] + O
- mass density ([1]; a1 = 0.1091): 1039.02 ± 0.39 kg/m3
- mass density ([1]; a1 = 0.1535): 1053.89 ± 0.42 kg/m3
- mass density ([1]; a1 = 0.1933): 1065.41 ± 0.46 kg/m3
- mass density ([1]; a1 = 0.2231): 1075.18 ± 0.48 kg/m3
- mass density ([1]; a1 = 0.239): 1079.4 ± 0.49 kg/m3
- mass density ([1]; a1 = 0.244): 1080.36 ± 0.5 kg/m3
- mass density ([1]; a1 = 0.2509): 1082.99 ± 0.5 kg/m3

Compound: NCC(=O)NCC(=O)NCC(=O)O [glycylglycylglycine] + O
- mass density ([1]; a1 = 0.0099): 1001 ± 0.28 kg/m3
- mass density ([1]; a1 = 0.0192): 1004.77 ± 0.29 kg/m3
- mass density ([1]; a1 = 0.0355): 1011.02 ± 0.31 kg/m3
- mass density ([1]; a1 = 0.0452): 1014.88 ± 0.32 kg/m3
- mass density ([1]; a1 = 0.0544): 1018.36 ± 0.33 kg/m3
- mass density ([1]; a1 = 0.0624): 1021.44 ± 0.34 kg/m3
- mass density ([1]; a1 = 0.0641): 1022.05 ± 0.34 kg/m3

Compound: NCC(=O)NCC(=O)NCC(=O)NCC(=O)O [glycylglycylglycylglycine] + O
- mass density ([1]; a1 = 0.0013): 997.73 ± 0.29 kg/m3
- mass density ([1]; a1 = 0.0023): 998.04 ± 0.29 kg/m3
- mass density ([1]; a1 = 0.0031): 998.3 ± 0.29 kg/m3
- mass density ([1]; a1 = 0.0033): 998.38 ± 0.29 kg/m3
- mass density ([1]; a1 = 0.0036): 998.49 ± 0.29 kg/m3
- mass density ([1]; a1 = 0.0038): 998.55 ± 0.28 kg/m3
- mass density ([1]; a1 = 0.0039): 998.59 ± 0.28 kg/m3

Compound: [Br-].[K+] [potassium bromide] + O
- mass density ([2]; c1 = 1): 1080.52 ± 0.42 kg/m3
- mass density ([2]; c1 = 2): 1162.26 ± 0.63 kg/m3
- mass density ([2]; c1 = 4): 1323.4 ± 1.1 kg/m3

Next, values leading:

- mass density ([1]; a1 = 0.1001): 1035.94 ± 0.32 kg/m3
- mass density ([1]; a1 = 0.1553): 1053.34 ± 0.36 kg/m3
- mass density ([1]; a1 = 0.193): 1066.16 ± 0.4 kg/m3
- mass density ([1]; a1 = 0.2113): 1072.41 ± 0.41 kg/m3
- mass density ([1]; a1 = 0.2201): 1074.86 ± 0.42 kg/m3
- mass density ([1]; a1 = 0.2258): 1076.92 ± 0.42 kg/m3
Compound: O=C(O)CNCC(=O)O [N-(carboxymethyl)glycine] + O

- mass density ([2]; c1 = 1): 1042.84 ± 0.32 kg/m3
- mass density ([2]; c1 = 2): 1082.33 ± 0.42 kg/m3
- mass density ([2]; c1 = 4): 1168.97 ± 0.63 kg/m3
Compound: [Cl-].[K+] [potassium chloride] + O

- mass density ([1]; a1 = 0.0003): 997.17 ± 0.29 kg/m3
- mass density ([1]; a1 = 0.0007): 997.34 ± 0.29 kg/m3
- mass density ([1]; a1 = 0.0009): 997.37 ± 0.29 kg/m3
- mass density ([1]; a1 = 0.0026): 997.92 ± 0.29 kg/m3
- mass density ([1]; a1 = 0.0053): 998.93 ± 0.28 kg/m3
- mass density ([1]; a1 = 0.0101): 1000.34 ± 0.28 kg/m3
- mass density ([1]; a1 = 0.0134): 1001.42 ± 0.29 kg/m3
- mass density ([1]; a1 = 0.0157): 1002.16 ± 0.29 kg/m3
- mass density ([1]; a1 = 0.0168): 1002.5 ± 0.29 kg/m3
Compound: O=C1CNC(=O)CN1 [2,5-diketopiperazine] + O

- mass density ([2]; c1 = 1): 1043.58 ± 0.32 kg/m3
- mass density ([2]; c1 = 2): 1087.93 ± 0.43 kg/m3
- mass density ([2]; c1 = 4): 1170.95 ± 0.64 kg/m3
Compound: CC(=O)[O-].[K+] [potassium ethanoate] + O
